Laboratory results reported in US20070092942A1, “Ubiquitin specific enzymes of family herpesviridae” (priority 2005, published 2007).

Tests used:
[1] = target: T1, His6UL36^USP (Human herpesvirus 1, UniProt P10220); assay: Cleavage of Ub-AMC by recombinant UL36^USP; assay type: biochemical, HSV-1; conditions: 10 pmol inhibitor pre-incubated 30 minutes with ~0.1 pmol enzyme
T1 construct: amino acids 1 to 533 of the UL36 gene product from HHV HSV1; 6-His (pET-28a(+)) (N); 6-His (pET-28a(+)) (C); made in house; host or cells: E. coli BL21 or BL21 RIPL
Experimental: Recombinant UL36^USP and UL36^USP/C65A (˜0.1 pmol) were incubated in 125 μl kinetics buffer (50 mM HEPES, pH 7.5, 0.5 mM EDTA) supplemented with 1 mM DTT at room temperature for 10 minutes. To this was added 75 μl of Ub-AMC (250 nM in kinetics buffer) and AMC liberation was measured at 25° C. For inhibition experiments, one of UbVME, SUMO-VME, ISG15-VS, or Nedd8-VS (10 pmol) was incubated with recombinant UL36^USP (˜0.1 pmol) for 30 minutes at room temperature. To this was added 75 μl of Ub-AMC (250 nM in kinetics buffer) and AMC liberation was measured. Cleavage experiments were performed in triplicate. All fluorescence measurements were made using a Wallac Victor^3 1420 fluorescence/luminescence plate reader (Perkin Elmer) using 380 nm excitation and 460 nm emission wavelengths, with 5 second intervals between measurements. Data were exported as an Excel file and plotted as mean values of replicate experiments using Kaleidagraph v3.6 (Synergy Software).
In a typical eukaryotic cell, the presence of multiple DUBs, whose substrate pool and catalytic activities may overlap, confounds straightforward analysis of the activity of any one particular DUB. Although we have found excellent correlation between labeling of polypeptides with the Ub/UbL probes and their identification as active DUBs, the probes are covalent inactivators and cannot be used to assess enzymatic (i.e. catalytic) peptidase activity. To validate the activity of UL36^USP as a protease with specificity for Ub-modified substrates, we cloned a sequence spanning the 533 N-terminal amino acids of HSV-1 UL36^USP into a His-tagged expression vector (His6-UL36^USP). We also generated a point mutant of this construct in which the active site cysteine residue, Cys^65, was replaced by alanine (His6UL36^USP/C65A). The proteins were expressed, purified over Ni-NTA resin and evaluated for their ability to cleave Ub C-terminal 7-amido-4-methylcoumarin (Ub-AMC) (Dang et al., 1998). […] The results are consistent with the labeling experiments using UbL probes with HSV-1-infected lysates (FIG. 4B).

[2] = test system: UL36^USP; assay: Electrophilic probe labeling of HSV-1 infected HFF cell lysates, immunoblot; assay type: binding; conditions: for Labeling / reaction of UL36^USP by electrophilic probe: HSV-infected HFF lysates, immunoblot
Experimental: HFFs were infected with HSV-1 KOS at an MOI of 10 and harvested by trypsinolysis at the indicated times post infection. Cells were washed 1× in PBS and pelleted by centrifugation in a microcentrifuge at 3,000×g for 20 minutes at 4° C. Cells were lysed by adding 2× the pellet volume of NP40 lysis buffer (150 mM NaCl, 50 mM Tris pH 7.4, 5 mM MgCl2, 0.5 mM EDTA, 2 mM DTT, 2 mM ATP, 0.5% NP40) and rocking at 4° C. for 1 hour. Cell lysates were centrifuged at 12,000×g for 20 minutes at 4° C. Protein concentration of supernatants was established by Bradford assay and lysates were standardized to 5 μg/μl by the addition of the required volume of NP40 lysis buffer. For each labeling reaction, 50 μg of lysate was incubated with 0.8 μg of probe in a total volume of 60 μL of homogenization buffer (50 mM Tris pH 7.5, 5 mM MgCl2, 0.5 mM EDTA, 2 mM DTT, 2 mM ATP, 250 mM sucrose). For reactions involving NEM, lysates were incubated at room temperature for 30 minutes with 5 mM NEM prior to addition of probe. Reactions were incubated for 30 minutes at R.T. Samples were boiled in reducing sample buffer and separated by SDS-PAGE. Proteins were transferred to PVDF membranes and immunoblotted with mouse monoclonal anti-HA antibody (12CA5) at 1:4000 dilution followed by goat anti-mouse IgG-HRP (Southern Biotech) at 1: 10,000 dilution. Blots were developed using Western Lightning chemiluminescence reagent (Perkin Elmer).
To profile DUB activity during HSV-1 infection, we used HA-tagged Ub-vinylmethyl ester (HAUbVME) (Borodovsky et al., 2002). Human foreskin fibroblasts (HFFs) were infected with HSV-1 at a multiplicity of infection of 10, harvested at 4, 6, 9, 12, 22 and 30 hours post-infection (p.i.), and lysed.
To address whether UL36^USP labeling by HAUbVME was a consequence of the Ub or the VME moiety, we incubated lysates of HSV-infected HFFs at 24 hours p.i. with related electrophilic derivatives (Borodovsky et al., 2002). […] There are a number of Ub-like (UbL) proteins in eukaryotes (Larsen and Wang, 2002). This family of UbL proteins has diversified functionally to cover many cellular pathways: SUMO proteins function in nuclear signaling and transcription (Hay, 2005); ISG15 is an interferon-inducible gene product (Ritchie and Zhang, 2004); and the closest homolog of Ub, Nedd8, is an activator of the cullin family of E3 Ub ligases (Petroski and Deshaies, 2005; Willems et al., 2004). Probes derived from Ub and UbL modifiers target proteases that are either specific for a single Ub/UbL or selective for a limited number of these proteases (Borodovsky et al., 2002; Hemelaar et al., 2004). We explored the reactivity of UL36^USP with Ub and UbL-derived probes to determine its specificity. We incubated lysates of mock-infected and HSV-infected HFFs at 24 hours p.i. with either HAUbVME or with one of three UbL probes, HA-SUMO-1-VME, HA-ISG15-VME or FLAG-Nedd8-VS (FIG. 4B).

[3] = test system: mCMV285, mCMV575; assay: UbAMC hydrolysis assay with mCMV285 and mCMV575; assay type: biochemical, mouse cytomegalovirus; conditions: enzyme 100 pM, Ub-AMC 100 nM
Experimental: (§1) We next tested the ability of the enzymes to cleave Ub-AMC (Ub C-terminal 7-amido-4-methylcoumarin, Boston Biochem). UbAMC hydrolysis assays were performed in reaction buffer supplemented with BSA (50 μg/ml) by incubating the enzymes (100 pM) with a large excess of Ub-AMC (100 nM). […] To address this issue, we tested the potential of several inhibitors to block DUB activity in Ub-AMC hydrolysis assays. Enzymes were preincubated for 1 h with a 100-fold molar excess of electrophilic derivatives of Ub, SUMO, NEDD8, and ISG15, all carrying a VME moiety as the electrophile at their C-terminus.

[4] = target: T2, EBV205 (Epstein-Barr virus, UniProt P03186); assay type: biochemical; conditions: enzyme 100 pM, Ub-AMC 100 nM
T2 construct: encoding for AA 1-205 of EBV (EBV205) and AA 1-285 of mCMV (mCMV285); His-tag (pET28) (N); made in house; host or cells: E. coli BL21-DE3
Experimental: as §1

[5] = target: T3, EBV205 (AA 1-205 of EBV BPLF1) (Epstein-Barr virus, UniProt P03186); assay type: binding
T3 construct: encoding for AA 1-205 of EBV (EBV205) and AA 1-285 of mCMV (mCMV285); His-tag (pET28) (N); made in house; host or cells: E. coli BL21-DE3
Description: (§2) To investigate functionality of this minimal DUB consensus domain we cloned the relevant genomic fragments for heterologous expression and subsequent biochemical characterization. The corresponding DNA fragments, encoding for AA 1-205 of EBV (EBV205) and AA 1-285 of mCMV (mCMV285), were PCR-cloned into pET28 according to standard procedures. Following expression in E. coli BL21-DE3, the fragments bearing a N-terminal His-tag were purified using a Ni-NTA resin (Qiagen) and subsequently subjected to a gel filtration column (S75 HiLoad, Amersham Pharmacia Biotech) equilibrated in storage buffer (50 mM Tris, 50 mM KCl, 50 mM NaCl, 0.5 mM EDTA, 2 mM DTT, 10% (v/v) glycerol, pH 7.5) to achieve apparent homogeneity. To address whether the purified constructs display DUB activity, we used HA-tagged Ub-vinylmethyl ester (HAUbVME), a probe that acts as suicide substrate for DUBs by forming a thioether bond to the active site cysteine. Reactions were performed using final concentrations of 1 μM enzyme (EBV205 or mCMV285) in the absence and presence of 2 μM HAUbVME in reaction buffer (50 mM Tris, 100 mM NaCl, 1 mM DTT pH 7.5) for 30 min at 37° C. Following incubation, samples were boiled in reducing sample buffer and subjected to SDS-PAGE.
(§3) In the case of mCMV, we also constructed a longer variant that terminates at position 575 (mCMV575).

[6] = test system: mCMV285, mCMV575 (mCMV UL36 homologue); assay: HAUbVME labeling of purified recombinant mCMV285 / mCMV575, SDS-PAGE and immunoblot; assay type: binding, mouse cytomegalovirus
Description: as §2, §3

[7] = preincubated 1 h with 100-fold molar excess of inhibitor
[8] = 1 μM enzyme, 2 μM HAUbVME, 30 min at 37° C.
[9] = pretreatment with 10 mM NEM for 10 min

SUMO-1-VS: electrophilic SUMO-1 derivative used as inhibitor
Inhibition of Ub-AMC cleavage by His6UL36^USP [1]: rates nearly identical to hydrolysis in the absence of these inhibitors

HA-ISG15-VME: UbL probe (18.8 kDa), HA-tagged ISG15 vinylmethyl ester
Labeling / reaction of UL36^USP by electrophilic probe [2]: did not observe reaction

UbVME: electrophilic derivative of Ub carrying a VME moiety at its C-terminus, covalent DUB inhibitor
Inhibition of UbAMC hydrolytic activity of mCMV285 / mCMV575 [3, 7]: completely inhibited
Inhibition of Ub-AMC cleavage by His6UL36^USP [1]: complete inhibition
Inhibition of UbAMC hydrolytic activity of EBV205 [4, 7]: completely inhibited

HA-SUMO-1-VME: UbL probe (12.8 kDa), HA-tagged SUMO-1 vinylmethyl ester
Labeling / reaction of UL36^USP by electrophilic probe [2]: did not observe reaction

ISG15-VS: electrophilic ISG15 derivative used as inhibitor
Inhibition of Ub-AMC cleavage by His6UL36^USP [1]: rates nearly identical to hydrolysis in the absence of these inhibitors

HAUbVS: HAUb-vinylsulfone, Ub-derived electrophilic probe
Labeling / reaction of UL36^USP by electrophilic probe [2]: comparably robust labeling

FLAG-Nedd8-VS: UbL probe (9.7 kDa), FLAG-tagged Nedd8 vinylsulfone
Labeling / reaction of UL36^USP by electrophilic probe [2]: did not observe reaction

HAUbVME: HA-tagged Ub-vinylmethyl ester, electrophilic Ub probe forming thioether bond to DUB active site cysteine
Covalent modification of EBV205 by probe (shift in electrophoretic mobility) [5, 8]: covalent modification
Labeling / reaction of UL36^USP by electrophilic probe [2]: observed labeling
Covalent modification of mCMV285 by probe (shift in electrophoretic mobility) [6, 8]: covalent modification

Nedd8-VS: electrophilic Nedd8 vinylsulfone derivative used as inhibitor
Inhibition of Ub-AMC cleavage by His6UL36^USP [1]: rates nearly identical to hydrolysis in the absence of these inhibitors

CCN1C(=O)C=CC1=O [NEM, N-ethylmaleimide]
Sensitivity of UbAMC hydrolysis by mCMV285 / mCMV575 to NEM [3]: sensitive to NEM
Effect on labeling of EBV205 with HAUbVME probe [5, 9]: completely blocked labeling
Effect on labeling of the 57 kDa polypeptide with HAUbVME ([2]; HSV-1 infected HFF lysates, 5 mM NEM 30 minutes prior to probe): inhibited
Sensitivity of UbAMC hydrolysis by EBV205 to NEM [4]: sensitive to NEM
Effect on reaction of mCMV575 with HAUbVME ([6]; mCMV575 variant): NEM-sensitive
Effect on labeling of mCMV285 with HAUbVME probe [6, 9]: completely blocked labeling
